{"source": "patent US7998933B2", "about": "“Process for treating the skin comprising applying to the skin at least one composition comprising at least one N-aminoacylamide” (L'Oreal S.A., priority 2000, dated 2011)", "key": {"[1]": {"molecular_target": "T1, human leukocyte elastase (HLE) (Homo sapiens, UniProt P08246)", "T1 sequence (P08246 30-267)": "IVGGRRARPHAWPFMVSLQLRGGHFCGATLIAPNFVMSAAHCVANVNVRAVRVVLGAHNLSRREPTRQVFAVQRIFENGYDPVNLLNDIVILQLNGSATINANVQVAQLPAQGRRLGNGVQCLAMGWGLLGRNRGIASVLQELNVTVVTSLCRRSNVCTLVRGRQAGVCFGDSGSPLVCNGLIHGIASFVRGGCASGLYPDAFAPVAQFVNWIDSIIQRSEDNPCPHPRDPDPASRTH", "assay": "in vitro anti-elastase activity, substrate Me-OSAAPV-p-NA, spectrophotometry", "type": "biochemical", "method": "The in vitro anti-elastase activity of compounds according to the invention with respect to human leukocyte elastase (HLE) was determined. […]\nThe percentage inhibition of the control elastase activity is then determined by spectrophotometry."}, "[2]": {"test_system": "surviving human skin irradiated with UVA (8 J/cm^2)", "assay": "activity on surviving human skin irradiated with UVA, morphometric analysis of elastic fibres and collagen", "type": "cell-based", "settings": "UVA 8 J/cm^2 once + 5 μl of 0.2% compound every two days, 7 days at 37° C.", "method": "The activity of the compound of Example 2 on surviving human skin irradiated with UVA (8 J/cm^2) was evaluated.\nFragments of normal human skin obtained from four different donors are placed in inserts positioned in culture wells. Culture medium supplemented with antibiotics is placed in the bottom of the wells. A passage is carried out by slow diffusion between the two compartments by means of a porous membrane (pore size: 12 μm).\n(§1) The culture medium is freshened every three days.\n5 μl of the test compound, predissolved at a concentration of 0.2% in ethanol, is added to the skin fragments every two days.\nThe skins are kept alive for 7 days at 37° C.\nThe skins are irradiated once at 8 J/cm^2 (Vilbert-Lourmat RMX-3W lamp).\n(§2) The elastic fibres are stained blue with (+)-catechin and morphometrically quantified by computer-assisted image analysis. The percentage of average dermal surface area occupied by the elastic fibres is thus evaluated."}, "[3]": {"test_system": "surviving human skin treated with human leukocyte elastase (HLE)", "assay": "ex vivo activity on fresh sections of human skin treated with HLE for 2 hours, morphometric quantification of elastic fibres", "type": "cell-based", "settings": "10 μg/ml HLE + 0.1% compound, 2 hours at 20° C.", "method": "(§3) The ex vivo activity of the compound of Example 2 was evaluated on surviving human skin treated with human leukocyte elastase (HLE).\nFresh sections of human skin, obtained from 2 different donors, are treated for 2 hours at 20° C. with 20 μl of buffer solution (pH 7.4) optionally comprising 10 μg/ml of HLE and optionally 0.1% of the test compound, optionally predissolved in ethanol.\nas §2"}, "[4]": {"test_system": "surviving human skin treated with human leukocyte elastase (HLE)", "assay": "ex vivo activity on human skin fragments kept alive in culture for 10 days with HLE, morphometric quantification of elastic fibres", "type": "cell-based", "settings": "three donors; 0.5 μg/ml HLE + 5 μl of 0.2% compound in ethanol every two days, 10 days at 37° C.; control 7.4%, HLE alone 5.1%", "method": "as §3\nFragments of normal human skin obtained from three different donors are placed in inserts positioned in culture wells. Culture medium supplemented with antibiotics is placed in the bottom of the wells. A passage is carried out by slow diffusion between the two compartments by means of a porous membrane (pore size: 12 μm).\nas §1\n0.5 μg of HLE per ml of culture medium is optionally added to the skin fragments.\n5 μl of the test compound, predissolved at a concentration of 0.2% by weight in ethanol, is also added every two days.\nThe skins are kept alive for 10 days at 37° C.\nas §2"}, "[5]": {"settings": "compound concentration 0.1%, HLE 40 milliunits per ml, 37° C., 60 minutes"}}, "data": [{"smiles": "CCOC(=O)CNC(=O)C(C(C)C)N(Cc1ccccc1)C(=O)CP(=O)(OCC)OCC", "note": "(centres unmarked) [Compound B, ethyl [2-{benzyl((diethoxyphosphoryl)acetyl]amino}-3-methylbutyrylamino)acetate]", "values": [{"measurement": "% inhibition of the control elastase activity", "setting": "[1]; [5]", "result": 17, "unit": "%"}]}, {"smiles": "CC(=O)N(Cc1ccccc1)C(C(=O)NCC(=O)O)C(C)C", "note": "(centres unmarked) [Compound C, [2-(acetylbenzylamino)-3-methylbutyrylamino]acetic acid]", "values": [{"measurement": "% inhibition of the control elastase activity", "setting": "[1]; [5]", "result": 20, "unit": "%"}]}, {"smiles": "CCOC(=O)CNC(=O)C(C(C)C)N(Cc1ccccc1)C(C)=O", "note": "(centres unmarked) [Compound D, ethyl [2-(acetylbenzylamino)-3-methylbutyrylamino]acetate]", "values": [{"measurement": "% inhibition of the control elastase activity", "setting": "[1]; [5]", "result": 13, "unit": "%"}]}, {"smiles": "CC(=O)N(c1cccc(C(F)(F)F)c1)C(C(=O)NCC(=O)O)C(C)C", "note": "(centres unmarked) [Example 2, {2-[acetyl (3-trifluoromethylphenyl)amino]-3-methylbutyrylamino}acetic acid]", "values": [{"measurement": "inhibition of the elastase activity (in words)", "setting": "[1]", "result": "strong inhibition of the elastase activity, even in a small amount"}, {"measurement": "% inhibition of the control elastase activity", "setting": "[1]; [5]", "result": 67, "unit": "%"}, {"measurement": "% inhibition of the control elastase activity", "setting": "[1]; concentration of compound A 0.01%", "result": 53, "unit": "%"}, {"measurement": "% inhibition of the control elastase activity", "setting": "[1]; concentration of compound A 0.05%", "result": 50, "unit": "%"}, {"measurement": "% inhibition of the control elastase activity", "setting": "[1]; concentration of compound A 0.1% (concentration series)", "result": 68, "unit": "%"}, {"measurement": "% inhibition of the control elastase activity", "setting": "[1]; concentration of compound A 0.2%", "result": 68, "unit": "%"}, {"measurement": "Morphometric analysis of the elastic fibres (superficial dermis)", "setting": "[2]; untreated 6.75%, UVA alone 3.9%", "result": 6.8, "unit": "%"}, {"measurement": "Morphometric analysis of the collagen (superficial dermis)", "setting": "[2]; untreated 87%, UVA alone 81%", "result": 92, "unit": "%"}, {"measurement": "% of surface area occupied by the elastic fibres", "setting": "[3]; Skin 1, control 12.7%, HLE alone 4.85%", "result": 13.95, "unit": "%"}, {"measurement": "% of surface area occupied by the elastic fibres", "setting": "[3]; Skin 2, control 15.25%, HLE alone 6.85%", "result": 11.85, "unit": "%"}, {"measurement": "% of surface area occupied by the elastic fibres", "setting": "[4]", "result": 7.1, "unit": "%"}]}]}
